By EC50 is commonly meant the midpoint of the concentration-response curve.

The source of these data is US8906899B2, “Azetidine derivatives as sphingosine 1-phosphate (S1P) receptor modulators” (Allergan, Inc., priority 2010, dated 2014).

The target of this assay is T1, human S1P1 receptor (Homo sapiens, UniProt P21453).
T1 construct: expressed in transfected cells; membranes used
T1 sequence (P21453 whole entry): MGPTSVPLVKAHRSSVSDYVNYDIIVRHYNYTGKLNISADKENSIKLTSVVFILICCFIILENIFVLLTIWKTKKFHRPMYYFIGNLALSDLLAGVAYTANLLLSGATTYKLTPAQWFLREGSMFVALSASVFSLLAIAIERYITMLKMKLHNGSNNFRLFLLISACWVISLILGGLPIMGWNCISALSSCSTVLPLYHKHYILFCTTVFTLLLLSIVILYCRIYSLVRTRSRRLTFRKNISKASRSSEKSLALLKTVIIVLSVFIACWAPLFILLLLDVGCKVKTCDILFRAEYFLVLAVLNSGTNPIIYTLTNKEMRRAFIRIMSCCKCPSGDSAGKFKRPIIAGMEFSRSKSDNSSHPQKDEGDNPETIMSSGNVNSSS
The assay can be described thus: GTP γ35S binding assay for S1P1 activity. It is filed as biochemical. As to conditions: activity potency from GTP γ35S binding; membranes, test compounds 0.08 to 5,000 nM, 30 min at 25° C. The protocol: Compounds were synthesized and tested for S1P1 activity using the GTP γ^35S binding assay. These compounds may be assessed for their ability to activate or block activation of the human S1P1 receptor in cells stably expressing the S1P1 receptor.
GTP γ^35S binding was measured in the medium containing (mM) HEPES 25, pH 7.4, MgCl2 10, NaCl 100, dithitothreitol 0.5, digitonin 0.003%, 0.2 nM GTP γ^35S, and 5 μg membrane protein in a volume of 150 μl. Test compounds were included in the concentration range from 0.08 to 5,000 nM unless indicated otherwise. Membranes were incubated with 100 μM 5′-adenylylimmidodiphosphate for 30 min, and subsequently with 10 μM GDP for 10 min on ice. Drug solutions and membrane were mixed, and then reactions were initiated by adding GTP γ^35S and continued for 30 min at 25° C. Reaction mixtures were filtered over Whatman GF/B filters under vacuum, and washed three times with 3 mL of ice-cold buffer (HEPES 25, pH7.4, MgCl2 10 and NaCl-100). Filters were dried and mixed with scintillant, and counted for ^35S activity using a β-counter. Agonist-induced GTP γ^35S binding was obtained by subtracting that in the absence of agonist. Binding data were analyzed using a non-linear regression method. In case of antagonist assay, the reaction mixture contained 10 nM S1P in the presence of test antagonist at concentrations ranging from 0.08 to 5000 nM.
Background: GTPγS resists hydrolysis and so accumulates on activated G proteins.
The molecule `Cc1ccc(NC(c2cccc(Cl)c2)c2nc(-c3ccc(CN4CC(C(=O)O)C4)cc3)no2)cc1C` (stereo not drawn) [Compound 6, 1-[4-(5-{(3-chlorophenyl)[(3,4-dimethylphenyl)amino]methyl}-1,2,4-oxadiazol-3-yl)benzyl]azetidine-3-carboxylic acid] yielded a concentration giving a half-maximal response (EC50) of 312 nM.

For the molecule `CCc1ccc(OC(c2cccc(Cl)c2)c2nc(-c3ccc(CN4CC(C(=O)O)C4)cc3)no2)cc1` (stereo not drawn) [Compound 1, 1-(4-{5-[(3-chlorophenyl)(4-ethylphenoxy)methyl]-1,2,4-oxadiazol-3-yl}benzyl)azetidine-3-carboxylic acid], the midpoint of the response, the EC50, lay at 1060 nM. This EC50 is about 3.4-fold higher than that of the molecule before.

`CCCc1ccc(OC(c2cccc(Cl)c2)c2nc(-c3ccc(CN4CC(C(=O)O)C4)cc3)no2)cc1` (stereo not drawn) [Compound 3, 1-(4-{5-[(3-chlorophenyl)(4-propylphenoxy)methyl]-1,2,4-oxadiazol-3-yl}benzyl)azetidine-3-carboxylic acid] displayed an EC50 of 1100 nM. This EC50 and that of the molecule before are within 1.5-fold of each other.

Consider `Cc1ccc(OC(c2cccc(Cl)c2)c2nc(-c3ccc(CN4CC(C(=O)O)C4)cc3)no2)cc1C` (stereo not drawn) [Compound 2, 1-(4-{5-[(3-chlorophenyl)(3,4-dimethylphenoxy)methyl]-1,2,4-oxadiazol-3-yl}benzyl)azetidine-3-carboxylic acid], for which the EC50 turned out to be 598 nM.

`Cc1ccc(OC(c2nc(-c3ccc(CN4CC(C(=O)O)C4)cc3)no2)c2ccccc2Cl)cc1C` (stereo not drawn) [Compound 4, 1-(4-{5-[(2-chlorophenyl)(3,4-dimethylphenoxy)methyl]-1,2,4-oxadiazol-3-yl}benzyl)azetidine-3-carboxylic acid] showed a half-maximal effective concentration (EC50) of 911 nM.

For `O=C(NCc1ccc2c(c1)OCO2)c1cc(-c2ccccc2)c(N2CCOCC2)s1` [N-(1,3-benzodioxol-5-ylmethyl)-5-morpholin-4-yl-4-phenylthiophene-2-carboxamide], the concentration for a half-maximal effect (EC50) is 336 nM.
